Measured values published in patent US20180289678A1, “PHARMACEUTICAL COMPOSITION, PHARMACEUTICAL DOSAGE FORM, PROCESS FOR THEIR PREPARATION, METHODS FOR TREATING AND USES THEREOF” (Boehringer Ingelheim International GmbH, priority 2009, published 2018).
Read-outs that look alike come from different tables or passages of the source.

What was measured:
[1] = Study .3: single dose, cross-over, food effect study in healthy volunteers, pharmacokinetic parameters; format: in vivo, human; settings: 50 mg single dose
Description: (§1) 5. Pharmacokinetic Parameters
(§2) The pharmacokinetic parameters of pharmaceutical compositions and pharmaceutical dosage forms are assessed in healthy volunteer and patient populations. In the studies shown below, the participants fasted on the day of sampling, unless as otherwise stated (see for example study .3). The active substance in the studies below is the compound (I.9), preferably in the crystalline form (I.9X), and the dose of active ingredient is indicated in mg.
(§3) For the quantification of plasma concentrations of the active ingredient, 2.7 mL of blood was collected and transferred into an EDTA (ethylendiaminetetraacetic acid)-anticoagulant blood drawing tube. The EDTA-anticoagulated blood samples were centrifuged immediately after collection. Centrifugation lasted for about 10 minutes (at about 2,000×gf to 4,000×gf) at 4-8° C. or within 30 minutes while stored on ice. Concentrations of active substance in EDTA human plasma samples were quantitated using a HPLC/MS/MS method. The assay method comprised a solid phase supported liquid-liquid extraction of human plasma coupled with HPLC/MS/MS determination of the extracted samples. The HPLC/MS/MS assay was validated for the range of 1.11 to 1110 nM in human plasma.
(§4) Study .3: Single dose, cross-over, food effect study in a healthy volunteer population of N=14. Healthy volunteers were administered tablets as described in Example 10 (section Examples of formulations).
(§5) AUC0-inf:area under the concentration-time curve of the analyte in plasma over the time interval from 0 extrapolated to infinity.
(§6) Cmax: maximum concentration of the analyte in plasma.
(§7) Tmax: time from dosing to maximum concentration.

[2] = Pharmacokinetic profile in fasting humans, ranges over Studies .1 to .5; format: in vivo; settings: human, plasma, oral
Description: as §1, §2, §3
Study .1: Single dose study in a healthy volunteer population of N=72. Healthy volunteers were administered tablets as described in Example 10 (section Examples of formulations).
Study .2: Multiple rising dose trial in a diabetic patient population of N=48, once daily administration for 8 days. Patients were administered tablets as described in Example 10 (section Examples of formulations).
as §4
Study .4: 4-week treatment of a diabetic patient population of N=78, once daily administration for 4 weeks. Patients were administered tablets as described in Example 10 (section Examples of formulations).
Study .5: Single dose study in a healthy volunteer population of N=48 (Japanese volunteers). Healthy volunteers were administered tablets as described in Example 11 (section Examples of formulations).
as §5, §6, §7
AUCT,SS:area under the concentration-time curve of the analyte in plasma over the time interval from 0 to 24 h at steady-state.
Cmax,ss:maximum concentration of the analyte in plasma at steady state over a uniform dosing interval.
tmax,ss:time from dosing to maximum concentration at steady state.

## OC[C@H]1O[C@@H](c2ccc(Cl)c(Cc3ccc(O[C@H]4CCOC4)cc3)c2)[C@H](O)[C@@H](O)[C@@H]1O [Compound (I.9), 1-chloro-4-(β-D-glucopyranos-1-yl)-2-[4-((S)-tetrahydrofuran-3-yloxy)-benzyl]-benzene]
[1]; Study .3/fasted
  AUC0-inf Max: 14.1 µM·h
  AUC0-inf Min: 6.45 µM·h
  AUC0-inf,norm Max: 282 nmol·h/L/mg
  AUC0-inf,norm Median: 159 nmol·h/L/mg
  AUC0-inf,norm Min: 129 nmol·h/L/mg
  AUC0-inf,norm gMean: 166 nmol·h/L/mg
  Cmax,norm Max: 40 nmol/L/mg
  Cmax,norm Median: 20 nmol/L/mg
  Cmax,norm Min: 18 nmol/L/mg
  Cmax,norm gMean: 23 nmol/L/mg
  tmax Max: 4.07 h
  tmax Min: 0.750 h
[1]; Study .3/fasted, read-out: Cmax Max
  Cmax: 2020 nM
[1]; Study .3/fasted, read-out: Cmax Min
  Cmax: 878 nM
[1]; Study .3/fed
  AUC0-inf Max: 10.8 µM·h
  AUC0-inf Min: 5.06 µM·h
  AUC0-inf,norm Max: 216 nmol·h/L/mg
  AUC0-inf,norm Median: 150 nmol·h/L/mg
  AUC0-inf,norm Min: 101 nmol·h/L/mg
  AUC0-inf,norm gMean: 149 nmol·h/L/mg
  Cmax,norm Max: 21 nmol/L/mg
  Cmax,norm Median: 17 nmol/L/mg
  Cmax,norm Min: 9 nmol/L/mg
  Cmax,norm gMean: 16 nmol/L/mg
  tmax Max: 4.00 h
  tmax Min: 1.00 h
[1]; Study .3/fed, read-out: Cmax Max
  Cmax: 1070 nM
[1]; Study .3/fed, read-out: Cmax Min
  Cmax: 436 nM
[1]; human, plasma, oral, 50 mg, Study .3/fasted, read-out: AUC0-inf Mean
  AUC(0-inf): 8.51 µM·h
[1]; human, plasma, oral, 50 mg, Study .3/fasted, read-out: AUC0-inf Median
  AUC(0-inf): 7.93 µM·h
[1]; human, plasma, oral, 50 mg, Study .3/fasted, read-out: AUC0-inf gMean
  AUC(0-inf): 8.31 µM·h
[1]; human, plasma, oral, 50 mg, Study .3/fasted, read-out: Cmax Mean
  Cmax: 1180 nM
[1]; human, plasma, oral, 50 mg, Study .3/fasted, read-out: Cmax Median
  Cmax: 1010 nM
[1]; human, plasma, oral, 50 mg, Study .3/fasted, read-out: Cmax gMean
  Cmax: 1140 nM
[1]; human, plasma, oral, 50 mg, Study .3/fasted, read-out: tmax Mean
  Tmax: 1.53 h
[1]; human, plasma, oral, 50 mg, Study .3/fasted, read-out: tmax Median
  Tmax: 1.02 h
[1]; human, plasma, oral, 50 mg, Study .3/fasted, read-out: tmax gMean
  Tmax: 1.29 h
[1]; human, plasma, oral, 50 mg, Study .3/fed, read-out: AUC0-inf Mean
  AUC(0-inf): 7.59 µM·h
[1]; human, plasma, oral, 50 mg, Study .3/fed, read-out: AUC0-inf Median
  AUC(0-inf): 7.49 µM·h
[1]; human, plasma, oral, 50 mg, Study .3/fed, read-out: AUC0-inf gMean
  AUC(0-inf): 7.46 µM·h
[1]; human, plasma, oral, 50 mg, Study .3/fed, read-out: Cmax Mean
  Cmax: 824 nM
[1]; human, plasma, oral, 50 mg, Study .3/fed, read-out: Cmax Median
  Cmax: 830 nM
[1]; human, plasma, oral, 50 mg, Study .3/fed, read-out: Cmax gMean
  Cmax: 806 nM
[1]; human, plasma, oral, 50 mg, Study .3/fed, read-out: tmax Mean
  Tmax: 2.46 h
[1]; human, plasma, oral, 50 mg, Study .3/fed, read-out: tmax Median
  Tmax: 2.48 h
[1]; human, plasma, oral, 50 mg, Study .3/fed, read-out: tmax gMean
  Tmax: 2.18 h
[2]; 2.5 mg, dose of 2.5 mg, read-out: AUC
  AUC: 0.283 to 0.677 µM·h
[2]; 2.5 mg, dose of 2.5 mg, read-out: Cmax
  Cmax: 40.3 to 96.3 nM
[2]; 2.5 mg, dose of 2.5 mg, read-out: geometric mean AUC
  AUC: 0.394 to 0.468 µM·h
[2]; 2.5 mg, dose of 2.5 mg, read-out: geometric mean Cmax
  Cmax: 52.9 to 66.6 nM
[2]; 2.5 mg, multiple doses of 2.5 mg, read-out: AUCτ,ss
  AUC: 0.283 to 0.677 µM·h
[2]; 2.5 mg, multiple doses of 2.5 mg, read-out: Cmax,ss
  Cmax: 40.3 to 96.3 nM
[2]; 2.5 mg, single dose of 2.5 mg, read-out: AUC0-inf
  AUC(0-inf): 0.326 to 0.631 µM·h
[2]; 2.5 mg, single dose of 2.5 mg, read-out: Cmax
  Cmax: 42.8 to 81.2 nM
[2]; 2.5 mg, single dose of 2.5 mg, read-out: geometric mean AUC0-inf
  AUC(0-inf): 0.394 to 0.468 µM·h
[2]; 2.5 mg, single dose of 2.5 mg, read-out: geometric mean Cmax
  Cmax: 52.9 to 61.3 nM
[2]; 5 mg, dose of 5.0 mg, read-out: AUC
  AUC: 1 to 1.31 µM·h
[2]; 5 mg, dose of 5.0 mg, read-out: Cmax
  Cmax: 123 to 230 nM
[2]; 5 mg, single dose of 5.0 mg, read-out: AUC0-inf
  AUC(0-inf): 1 to 1.31 µM·h
[2]; 5 mg, single dose of 5.0 mg, read-out: Cmax
  Cmax: 123 to 230 nM
[2]; 10 mg, dose of 10.0 mg, read-out: AUC
  AUC: 1.17 to 3.19 µM·h
[2]; 10 mg, dose of 10.0 mg, read-out: Cmax
  Cmax: 143 to 796 nM
[2]; 10 mg, dose of 10.0 mg, read-out: geometric mean AUC
  AUC: 1.69 to 2.66 µM·h
[2]; 10 mg, dose of 10.0 mg, read-out: geometric mean Cmax
  Cmax: 221 to 372 nM
[2]; 10 mg, multiple doses of 10.0 mg, read-out: AUCτ,ss
  AUC: 1.35 to 2.6 µM·h
[2]; 10 mg, multiple doses of 10.0 mg, read-out: Cmax,ss
  Cmax: 166 to 479 nM
[2]; 10 mg, multiple doses of 10.0 mg, read-out: geometric mean AUCτ,ss
  AUC: 1.85 to 2 µM·h
[2]; 10 mg, multiple doses of 10.0 mg, read-out: geometric mean Cmax,ss
  Cmax: 252 to 272 nM
[2]; 10 mg, single dose of 10.0 mg, read-out: AUC0-inf
  AUC(0-inf): 1.17 to 3.19 µM·h
[2]; 10 mg, single dose of 10.0 mg, read-out: Cmax
  Cmax: 143 to 796 nM
[2]; 10 mg, single dose of 10.0 mg, read-out: geometric mean AUC0-inf
  AUC(0-inf): 1.69 to 2.66 µM·h
[2]; 10 mg, single dose of 10.0 mg, read-out: geometric mean Cmax
  Cmax: 221 to 372 nM
[2]; 25 mg, dose of 25.0 mg, read-out: AUC
  AUC: 2.66 to 7.64 µM·h
[2]; 25 mg, dose of 25.0 mg, read-out: Cmax
  Cmax: 334 to 1030 nM
[2]; 25 mg, dose of 25.0 mg, read-out: geometric mean AUC
  AUC: 3.75 to 6.13 µM·h
[2]; 25 mg, dose of 25.0 mg, read-out: geometric mean Cmax
  Cmax: 490 to 709 nM
[2]; 25 mg, multiple doses of 25.0 mg, read-out: AUCτ,ss
  AUC: 2.79 to 7.64 µM·h
[2]; 25 mg, multiple doses of 25.0 mg, read-out: Cmax,ss
  Cmax: 443 to 907 nM
[2]; 25 mg, multiple doses of 25.0 mg, read-out: geometric mean AUCτ,ss
  AUC: 4.64 to 4.89 µM·h
[2]; 25 mg, multiple doses of 25.0 mg, read-out: geometric mean Cmax,ss
  Cmax: 622 to 676 nM
[2]; 25 mg, single dose of 25.0 mg, read-out: AUC0-inf
  AUC(0-inf): 2.66 to 7.17 µM·h
[2]; 25 mg, single dose of 25.0 mg, read-out: Cmax
  Cmax: 334 to 1030 nM
[2]; 25 mg, single dose of 25.0 mg, read-out: geometric mean AUC0-inf
  AUC(0-inf): 3.75 to 6.13 µM·h
[2]; 25 mg, single dose of 25.0 mg, read-out: geometric mean Cmax
  Cmax: 490 to 709 nM
[2]; 50 mg, dose of 50.0 mg, read-out: AUC
  AUC: 6.45 to 14.1 µM·h
[2]; 50 mg, dose of 50.0 mg, read-out: Cmax
  Cmax: 722 to 2020 nM
[2]; 50 mg, dose of 50.0 mg, read-out: geometric mean AUC
  AUC: 8.31 to 8.46 µM·h
[2]; 50 mg, dose of 50.0 mg, read-out: geometric mean Cmax
  Cmax: 1080 to 1140 nM
[2]; 50 mg, single dose of 50.0 mg, read-out: AUC0-inf
  AUC(0-inf): 6.45 to 14.1 µM·h
[2]; 50 mg, single dose of 50.0 mg, read-out: Cmax
  Cmax: 722 to 2020 nM
[2]; 50 mg, single dose of 50.0 mg, read-out: geometric mean AUC0-inf
  AUC(0-inf): 8.31 to 8.46 µM·h
[2]; 50 mg, single dose of 50.0 mg, read-out: geometric mean Cmax
  Cmax: 1080 to 1140 nM
